According to patent US11753446B2, “Beta-hairpin peptidomimetics” (POLYPHOR AG, priority 2014, dated 2023):
Where a SMILES comes first, the peptide text is derived from it. Bridges are numbered along the chain shown (N, C = ends). [ ]: non-standard residue; d: D form. dPen = CC(C)(S)[C@@H](N)C(=O)O; Chg = N[C@H](C(=O)O)C1CCCCC1; Tle = CC(C)(C)[C@H](N)C(=O)O; dDab = NCC[C@@H](N)C(=O)O; NMeA = CN[C@@H](C)C(=O)O; Orn = NCCC[C@H](N)C(=O)O; Dab = NCC[C@H](N)C(=O)O; Dap = NC[C@H](N)C(=O)O

What was measured:
[1] = test system: human red blood cells (hRBC); assay: Hemolysis: hemolytic activity at 100 μg/mL, 1 h at 37° C.; settings: red cells of human, 1 h, 100
Experimental: Lyophilized peptides were weighed on a Microbalance (Mettler MT5) and dissolved in sterile water to a final concentration of 1 mg/mL. Stock solutions were kept at +4° C., light protected.
The peptides were tested for their hemolytic activity against human red blood cells (hRBC). Fresh hRBC were washed three times with phosphate buffered saline (PBS) and centrifuged for 5 min at 3000×g. Compounds (100 μg/mL) were incubated with 20% hRBC (v/v) for 1 h at 37° C. and shaking at 300 rpm. The final erythrocyte concentration was approximately 0.9×10^9 cells/mL. A value of 0% and 100% cell lyses, respectively, was determined by incubation of hRBC in the presence of PBS containing 0.001% acetic acid and 2.5% Triton X-100 in H2O, respectively. The samples were centrifuged, the supernatants were 8-fold diluted in PBS buffer and the optical densities (OD) were measured at 540 nm.
Percent hemolysis was calculated as follows: (OD540peptide/OD540H2O)×100%.

[2] = test system: Acinetobacter baumannii DSM 30008; format: cell-based; settings: DSM 30008
Experimental: (§1) Stock solutions were kept at +4° C., light protected.
(§2) The selective antimicrobial activities of the peptides were determined in 96-well plates (Greiner, polystyrene) by the standard NCCLS broth microdilution method (National Committee for Clinical Laboratory Standards 1993. Methods for dilution antimicrobial susceptibility tests for bacteria that grow aerobically, 3rd ed. Approved standard M7-A6; National Committee for Clinical laboratory standards, Wayne, Pa.) with slight modifications. Inocula of the microorganisms were diluted into Mueller-Hinton II (MH, cation adjusted) broth and compared with a 0.5 McFarland standard to give appr. 10^6 colony forming units (CFU)/mL. Aliquots (90 μl) of inoculate were added to 10 μl of MH broth+P-80 (Polysorbate 80, 0.002% final concentration) containing the peptide in serial two-fold dilutions. The following microorganisms were used to determine antibiotic selectivity of the peptides: Escherichia coli ATCC 25922, Klebsiella pneumoniae ATCC 13883 and Acinetobacter baumannii DSM 30008.

[3] = test system: Escherichia coli ATCC 25922; format: cell-based; settings: ATCC 25922
Experimental: as §1, §2

[4] = test system: Klebsiella pneumoniae ATCC 13883; format: cell-based; settings: ATCC 13883
Experimental: as §1, §2

Structure (SMILES)	Hemolysis at 100 μg/mL [1] [%]	Acinetobacter baumannii DSM 30008 MIC [2] [µg/mL]	Escherichia coli ATCC 25922 MIC [3] [µg/mL]	Klebsiella pneumoniae ATCC 13883 MIC [4] [µg/mL]
CC(C)C[C@@H]1NC(=O)[C@H](CCN)NC(=O)[C@@H](CCN)NC(=O)[C@H](CO)NC(=O)[C@H](C)NC(=O)[C@H](Cc2ccc(O)cc2)NC(=O)[C@@H]2CSSC[C@H](NC(=O)[C@H](Cc3ccc(O)cc3)NC(=O)[C@H](CO)NC1=O)C(=O)N[C@@H](CCCN)C(=O)N[C@H](CCN)C(=O)N[C@@H](CCN)C(=O)N[C@@H](Cc1c[nH]c3ccccc13)C(=O)N2 [Example 38, cyclo(-Leu-Ser-Tyr-Cys-Orn-^DDab-Dab-Trp-Cys-Tyr-Ala-Ser-^DDab-Dab-)] (HELM PEPTIDE1{A.S.[NCC[C@@H](N[*:1])C(=O)[*:2]].[Dab].L.S.Y.C.[Orn].[NCC[C@@H](N[*:1])C(=O)[*:2]].[Dab].W.C.Y}$PEPTIDE1,PEPTIDE1,8:R3-13:R3|PEPTIDE1,PEPTIDE1,1:R1-14:R2$$$V2.0)	1	3	2	2
CC[C@H](C)[C@@H]1NC(=O)[C@H](Cc2ccc(O)cc2)NC(=O)[C@@H](C)NC(=O)[C@H](CO)NC(=O)[C@H](C)NC(=O)[C@H](C(C)(C)C)NC(=O)[C@H](CCN)NC(=O)[C@H](Cc2c[nH]c3ccccc23)NC(=O)[C@H](CCN)NC(=O)[C@@H](CCN)NC(=O)[C@H](CCCN)NC(=O)[C@H](CCN)NC(=O)[C@H](Cc2ccc(O)cc2)NC(=O)[C@H]([C@@H](C)O)NC1=O [Example 49, cyclo(-Ile-Thr-Tyr-Dab-Orn-^DDab-Dab-Trp-Dab-tBuGly-Ala-Ser-^DAla-Tyr-)] (HELM PEPTIDE1{A.S.[dA].Y.I.T.Y.[Dab].[Orn].[NCC[C@@H](N[*:1])C(=O)[*:2]].[Dab].W.[Dab].[CC(C)(C)[C@H](N[*:1])C(=O)[*:2]]}$PEPTIDE1,PEPTIDE1,1:R1-14:R2$$$V2.0)	2	4	2	2
CC[C@H](C)[C@@H]1NC(=O)[C@H](Cc2ccc(O)cc2)NC(=O)[C@@H](C)NC(=O)[C@H](CO)NC(=O)[C@@H]2CSSC[C@H](NC1=O)C(=O)N[C@@H](Cc1ccc(O)cc1)C(=O)N[C@@H](CCN)C(=O)N[C@@H](CCCN)C(=O)N[C@H](CCN)C(=O)N[C@@H](CCN)C(=O)N[C@@H](Cc1c[nH]c3ccccc13)C(=O)N[C@@H](CCN)C(=O)N[C@@H](C(C)(C)C)C(=O)N2 [Example 16, cyclo(-Ile-Cys-Tyr-Dab-Orn-^DDab-Dab-Trp-Dab-tBuGly-Cys-Ser-^DAla-Tyr-)] (HELM PEPTIDE1{C.S.[dA].Y.I.C.Y.[Dab].[Orn].[NCC[C@@H](N[*:1])C(=O)[*:2]].[Dab].W.[Dab].[CC(C)(C)[C@H](N[*:1])C(=O)[*:2]]}$PEPTIDE1,PEPTIDE1,1:R3-6:R3|PEPTIDE1,PEPTIDE1,1:R1-14:R2$$$V2.0)	1	1	0.5	0.5
CC(C)C[C@@H]1NC(=O)[C@H](CCCNC(=N)N)NC(=O)[C@H]2CCCN2C(=O)[C@H](C(C)C)NC(=O)[C@@H]2CSSC[C@H](NC1=O)C(=O)N[C@@H](Cc1ccc(O)cc1)C(=O)N[C@@H](C)C(=O)N[C@@H](CCN)C(=O)N[C@H](CCN)C(=O)N[C@@H](CCN)C(=O)N[C@@H](Cc1c[nH]c3ccccc13)C(=O)N[C@@H](C)C(=O)N[C@@H](C(C)C)C(=O)N2 [Example 2, cyclo(-Leu-Cys-Tyr-Ala-Dab-^DDab-Dab-Trp-Ala-Val-Cys-Val-^DPro-Arg-)] (HELM PEPTIDE1{A.[Dab].[NCC[C@@H](N[*:1])C(=O)[*:2]].[Dab].W.A.V.C.V.[dP].R.L.C.Y}$PEPTIDE1,PEPTIDE1,8:R3-13:R3|PEPTIDE1,PEPTIDE1,1:R1-14:R2$$$V2.0)	5	2.5	4	2
CC(C)C[C@@H]1NC(=O)[C@H](CCCNC(=N)N)NC(=O)[C@H]2CCCN2C(=O)[C@H](C(C)C)NC(=O)[C@H]([C@@H](C)O)NC(=O)[C@H](C(C)C)NC(=O)[C@@H]2CSSC[C@H](NC(=O)[C@H](Cc3ccc(O)cc3)NC(=O)[C@H]([C@@H](C)O)NC1=O)C(=O)N[C@@H](CCN)C(=O)N[C@@H](CCN)C(=O)N[C@@H](CCN)C(=O)N[C@@H](Cc1c[nH]c3ccccc13)C(=O)N2 [Example 35, cyclo(-Leu-Thr-Tyr-Cys-Dab-Dab-Dab-Trp-Cys-Val-Thr-Val-^DPro-Arg-)] (HELM PEPTIDE1{C.[Dab].[Dab].[Dab].W.C.V.T.V.[dP].R.L.T.Y}$PEPTIDE1,PEPTIDE1,1:R3-6:R3|PEPTIDE1,PEPTIDE1,1:R1-14:R2$$$V2.0)	4	1	2	2
CC(C)C[C@@H]1NC(=O)[C@@H]2CCCN2C(=O)[C@H]2CCCN2C(=O)[C@H](CO)NC(=O)[C@@H]2NC(=O)[C@H](C3CCCCC3)NC(=O)[C@H](CCN)NC(=O)[C@H](Cc3c[nH]c4ccccc34)NC(=O)[C@H](CCN)NC(=O)[C@@H](CCN)NC(=O)[C@H](CCCN)NC(=O)[C@H](CCN)NC(=O)[C@H](C(C)(C)C)NC(=O)[C@H](NC1=O)C(C)(C)SSC2(C)C [Example 33, cyclo(-Leu-Pen-tBuGly-Dab-Orn-DDab-Dab-Trp-Dab-Chg-Pen-Ser-^DPro-Pro-)] (cyclo(L[dPen][Tle][Dab][Orn][dDab][Dab]W[Dab][Chg][dPen]S[dP]P); disulfide 2-11)	1	1	1	2
CC(C)C[C@@H]1NC(=O)[C@H](CCCNC(=N)N)NC(=O)[C@@H](CCN)NC(=O)[C@H]([C@@H](C)O)NC(=O)[C@@H]2CSSC[C@H](NC1=O)C(=O)N[C@@H](Cc1ccc(O)cc1)C(=O)N[C@@H](CC(N)=O)C(=O)N[C@@H](CCCN)C(=O)N[C@H](CCN)C(=O)N[C@@H](CCN)C(=O)N[C@@H](Cc1c[nH]c3ccccc13)C(=O)N[C@@H](CO)C(=O)N[C@@H](Cc1ccc(O)cc1)C(=O)N2 [Example 74, cyclo(-Leu-Cys-Tyr-Asn-Orn-^DDab-Dab-Trp-Ser-Tyr-Cys-Thr-^DDab-Arg-)] (HELM PEPTIDE1{C.T.[NCC[C@@H](N[*:1])C(=O)[*:2]].R.L.C.Y.N.[Orn].[NCC[C@@H](N[*:1])C(=O)[*:2]].[Dab].W.S.Y}$PEPTIDE1,PEPTIDE1,1:R3-6:R3|PEPTIDE1,PEPTIDE1,1:R1-14:R2$$$V2.0)	1	1.5	4	1
CC(C)[C@@H]1NC(=O)[C@H](C)N(C)C(=O)[C@H]2CCCN2C(=O)[C@H](CO)NC(=O)[C@H](C)NC(=O)[C@H](C(C)(C)C)NC(=O)[C@H](CCN)NC(=O)[C@H](Cc2c[nH]c3ccccc23)NC(=O)[C@H](CCN)NC(=O)[C@@H](CCN)NC(=O)[C@H](CN)NC(=O)[C@H](CCN)NC(=O)[C@H](Cc2ccc(O)cc2)NC(=O)[C@H](CO)NC1=O [Example 44, cyclo(-Val-Ser-Tyr-Dab-Dap-^DDab-Dab-Trp-Dab-tBuGly-Ala-Ser-^DPro-NMeAla-)] (cyclo(AS[dP][NMeA]VSY[Dab][Dap][dDab][Dab]W[Dab][Tle]))	1	2	1	0.5
CC[C@H](C)[C@@H]1NC(=O)[C@H](Cc2ccc(O)cc2)NC(=O)[C@H]2CCCN2C(=O)[C@H](CO)NC(=O)[C@H](C)NC(=O)[C@H](C(C)(C)C)NC(=O)[C@H](CCN)NC(=O)[C@H](Cc2c[nH]c3ccccc23)NC(=O)[C@H](CCN)NC(=O)[C@@H](CCN)NC(=O)[C@H](CCCN)NC(=O)[C@H](CCN)NC(=O)[C@H](Cc2ccc(O)cc2)NC(=O)[C@H]([C@@H](C)O)NC1=O [Example 47, cyclo(-Ile-Thr-Tyr-Dab-Orn-^DDab-Dab-Trp-Dab-tBuGly-Ala-Ser-^DPro-Tyr-)] (HELM PEPTIDE1{A.S.[dP].Y.I.T.Y.[Dab].[Orn].[NCC[C@@H](N[*:1])C(=O)[*:2]].[Dab].W.[Dab].[CC(C)(C)[C@H](N[*:1])C(=O)[*:2]]}$PEPTIDE1,PEPTIDE1,1:R1-14:R2$$$V2.0)	0	4	1	1
